The text below walks through data of ChEMBL document CHEMBL4627389, “Constituents of Two Dioscorea Species That Potentiate Antibiotic Activity against MRSA” (2020).

SMILES strings stand for the structures. Calls of active or inactive are those of the source. The rule behind the calls is not given here.

Test [1] concerns Staphylococcus aureus. The experiment in a line: Potentiation of […] antibacterial activity against Staphylococcus aureus XU212 assessed as tetracycline MIC at 64 mg/L by broth dilution assay (reference value: […]). In kind it is functional. (In general: In broth dilution the organism is exposed to a series of concentrations in liquid medium.)
Test [2] relates to Staphylococcus aureus. The experiment in a line: Antibacterial activity against Staphylococcus aureus 1199B assessed as inhibition of efflux pump by measuring increase in intracellular accumulation of ethidium bromide at 0.25 times of MIC after 30 mins by fluorescence assay. In kind it is functional, organism-based.
Test [3] concerns Staphylococcus aureus. Description: Potentiation of norfloxacin-induced antibacterial activity against Staphylococcus aureus 1199B assessed as fold reduction in norfloxacin MIC at 64 mg/L by broth dilution assay relative to norfloxacin alone. The format is functional.
Test [4] concerns Staphylococcus aureus. The experiment in a line: Potentiation of norfloxacin-induced antibacterial activity against Staphylococcus aureus 1199B assessed as norfloxacin MIC at 64 mg/L by broth dilution assay (reference value: 32 mg/L). The format is functional.
The subject of test [5] is Staphylococcus aureus. Description: Potentiation of […] antibacterial activity against Staphylococcus aureus XU212 assessed as fold reduction in tetracycline MIC at 64 mg/L by broth dilution assay relative to tetracycline alone. The format is functional.
Test [6] concerns Staphylococcus aureus. Description: Potentiation of norfloxacin-induced antibacterial activity against Staphylococcus aureus 1199B assessed as norfloxacin MIC at 100 mg/L by broth dilution assay (reference value: 32 mg/L). In kind it is functional.
The test system of test [7] is Staphylococcus aureus. Description: Potentiation of norfloxacin-induced antibacterial activity against Staphylococcus aureus 1199B assessed as fold reduction in norfloxacin MIC at 100 mg/L by broth dilution assay relative to norfloxacin alone. The format is functional.
Test [8] deals with Staphylococcus aureus. Description: Potentiation of […] antibacterial activity against Staphylococcus aureus XU212 assessed as tetracycline MIC at 100 mg/L by broth dilution assay (reference value: […]). The format is functional.
In test [9] the test system is Staphylococcus aureus. The experiment in a line: Potentiation of […] antibacterial activity against Staphylococcus aureus XU212 assessed as fold reduction in tetracycline MIC at 100 mg/L by broth dilution assay relative to tetracycline alone. In kind it is functional.
Test [10] concerns Staphylococcus aureus. Description: Potentiation of norfloxacin-induced antibacterial activity against Staphylococcus aureus 1199B assessed as fold reduction in norfloxacin MIC at 20 mg/L by broth dilution assay relative to norfloxacin alone. The format is functional.
Test [11] concerns Staphylococcus aureus. Description: Potentiation of […] antibacterial activity against Staphylococcus aureus XU212 assessed as tetracycline MIC at 20 mg/L by broth dilution assay (reference value: […]). The format is functional.
The subject of test [12] is Staphylococcus aureus. The experiment in a line: Potentiation of norfloxacin-induced antibacterial activity against Staphylococcus aureus 1199B assessed as norfloxacin MIC at 20 mg/L by broth dilution assay (reference value: 32 mg/L). The format is functional.
Test [13] relates to Staphylococcus aureus. Description: Antibacterial activity against Staphylococcus aureus 1199B assessed as inhibition of efflux pump by measuring increase in intracellular accumulation of ethidium bromide after 30 mins by fluorescence assay. The format is functional, organism-based.
Test [14] deals with Staphylococcus aureus. Description: Potentiation of […] antibacterial activity against Staphylococcus aureus XU212 assessed as fold reduction in tetracycline MIC at 20 mg/L by broth dilution assay relative to tetracycline alone. In kind it is functional.
The test system of test [15] is Staphylococcus aureus. Description: Potentiation of norfloxacin-induced antibacterial activity against Staphylococcus aureus 1199B assessed as fold reduction in norfloxacin MIC at 30 mg/L by broth dilution assay relative to norfloxacin alone. In kind it is functional.
Test [16] has as its system Staphylococcus aureus. Description: Potentiation of […] antibacterial activity against Staphylococcus aureus XU212 assessed as tetracycline MIC at 30 mg/L by broth dilution assay (reference value: […]). The format is functional.
For test [17], the system named is Staphylococcus aureus. The experiment in a line: Potentiation of norfloxacin-induced antibacterial activity against Staphylococcus aureus 1199B assessed as norfloxacin MIC at 30 mg/L by broth dilution assay (reference value: 32 mg/L). The format is functional.

By MIC is commonly meant the lowest concentration found to suppress growth. Turning to `COc1cc(CCc2ccccc2O)cc(O)c1OC`, the MIC came to 64 µg/mL in test [1] and 2 µg/mL in test [4]. Also, in [2], the inhibition result is “Active”. Moreover, the entries for the “fold change (FC)” value in [3] and in test [5] were 16 and 2, respectively.

Take `COc1cc(CCC(=O)C[C@H](O)CC(=O)CCc2ccc(O)cc2)ccc1O`: the MIC is 16 µg/mL in test [6] and less than 0.25 µg/mL in test [8]. Moreover, the “fold change (FC)” value in test [7] was 2; in [9], 512.

On to `COC(=O)[C@H]1[C@H]2C[C@@H]3c4[nH]c5cc(OC)ccc5c4CCN3C[C@H]2C[C@@H](OC(=O)c2cc(OC)c(OC)c(OC)c2)[C@@H]1OC` [RESERPINE], for which the “fold change (FC)” value in test [10] and in test [14] was 2 each time. Moreover, the MIC in test [11] was 64 µg/mL; in test [12], 16 µg/mL. Further, in test [2], the inhibition result is “Active”. For the same molecule, the inhibition result in test [13] is “Dose-dependent effect”.

In the case of `COc1cc(CCC(=O)CC(O)CC(=O)CCc2ccc(O)c(OC)c2)ccc1O`, the “fold change (FC)” value in test [15] came to 4. In addition, the minimal inhibitory concentration (MIC) in test [16] came out at 128 µg/mL; in test [17] it was 8 µg/mL. Besides, the inhibition result in test [2] is “Active”.

On to `COc1ccc(/C=C/C(=O)OCCCCCCCCCCCCCCCCCCCCCCCCCCCCCCCC(=O)O)cc1O`, for which the MIC in test [6] was 4 µg/mL; in [8], 8 µg/mL. The “fold change (FC)” value in test [7] was determined as 8; in test [9] it was 16.
